{
  "source": "patent US9168286B2",
  "about": "“Methods and compositions for use in treatment of patients with autoantibody positive disease” (Human Genome Sciences, Inc., priority 2005, dated 2015)",
  "key": {"[1]": {"test": "Phase 2 clinical trial of belimumab in rheumatoid arthritis: serum concentrations", "details": "human, in vivo", "text": "ACR20 response increased to approximately 40% at Week 48."}, "subjects with SLE": {"tested_on": "subjects with SLE", "test": "Phase 2 clinical trial of belimumab in SLE with 24-week extension and continuation trial: disease activity (SELENA SLEDAI, SLE Flare Index, PGA, BILAG, SF-36)", "assay_type": "in vivo, human", "protocol": "Further, response rates among the treatment groups in the trial were also analyzed using a combined response endpoint (row 1), which combined a measure of global disease activity as measured by the SS score, with a measure of a patient's overall condition as assessed by the PGA disease activity index and a measure of disease in specific organ systems as measured by the BILAG scale.\nSerum autoantibodies, Ig isotypes and complement (C3, C4) were measured at 1-3 month intervals. […]"}, "[2]": {"details": "ANA+ subjects, week 52, 1.0 mg/kg, N = 78"}, "[3]": {"details": "ANA+ subjects, week 52, 4.0 mg/kg, N = 79"}, "[4]": {"details": "ANA+ subjects, week 52, 10.0 mg/kg, N = 78"}},
  "data": [
    {"substance": "belimumab: an antibody that neutralizes Neutrokine-alpha protein", "values": [
      {"measurement": "Serum concentrations", "setting": "[1]", "value": "within the range expected based on the Phase 1 data"},
      {"measurement": "effect of concomitant medications (methotrexate, leflunomide or hydroxychloroquine) on belimumab exposures", "setting": "[1]", "value": "no significant effect"},
      {"measurement": "dose response in efficacy", "setting": "subjects with SLE; 1, 4, 10 mg/kg", "value": "no dose response in efficacy"},
      {"measurement": "mean percent change from baseline PGA", "setting": "subjects with SLE; ANA+ subjects vs ANA+ placebo, as early as week 4, also weeks 8, 16, 48 (p<0.05), 52 (p<0.01)", "value": "significant improvement"},
      {"measurement": "mean SF-36 Physical Component Score (SF-36 PCS)", "setting": "subjects with SLE; ANA+ subjects vs ANA+ placebo, weeks 12, 24, 48, 52, p<0.05", "value": "significant improvements"},
      {"measurement": "frequency of increase in prednisone from ≦[…] to >[…]", "setting": "subjects with SLE; ANA+ subjects, as early as week 8, p<0.05 over weeks 8-12 and 32-40", "value": "significant reduction"},
      {"measurement": "combined response endpoint (SS, PGA, BILAG)", "setting": "subjects with SLE; ANA+ subjects, p=0.0058", "value": "significant response"},
      {"measurement": "% of subjects with no worsening by PGA (<0.3 point increase from baseline)", "setting": "subjects with SLE; [2]", "value": "(89.7%)"},
      {"measurement": "% of subjects with reduction in SELENA SLEDAI ≧4", "setting": "subjects with SLE; [2]", "value": "(52.6%)"},
      {"measurement": "subjects with no worsening by PGA (<0.3 point increase from baseline), number", "setting": "subjects with SLE; [2]", "value": 70},
      {"measurement": "subjects with reduction in SELENA SLEDAI ≧4, number", "setting": "subjects with SLE; [2]", "value": 41},
      {"measurement": "% of subjects with no worsening by PGA (<0.3 point increase from baseline)", "setting": "subjects with SLE; [3]", "value": "(88.6%)"},
      {"measurement": "% of subjects with reduction in SELENA SLEDAI ≧4", "setting": "subjects with SLE; [3]", "value": "(48.1%)"},
      {"measurement": "subjects with no worsening by PGA (<0.3 point increase from baseline), number", "setting": "subjects with SLE; [3]", "value": 70},
      {"measurement": "subjects with reduction in SELENA SLEDAI ≧4, number", "setting": "subjects with SLE; [3]", "value": 38},
      {"measurement": "% of subjects with no worsening by PGA (<0.3 point increase from baseline)", "setting": "subjects with SLE; [4]", "value": "(92.3%)"},
      {"measurement": "% of subjects with reduction in SELENA SLEDAI ≧4", "setting": "subjects with SLE; [4]", "value": "(47.4%)"},
      {"measurement": "subjects with no worsening by PGA (<0.3 point increase from baseline), number", "setting": "subjects with SLE; [4]", "value": 72},
      {"measurement": "subjects with reduction in SELENA SLEDAI ≧4, number", "setting": "subjects with SLE; [4]", "value": 37},
      {"measurement": "subjects with no worsening by PGA (<0.3 point increase from baseline), number", "setting": "subjects with SLE; ANA+ subjects, week 52, All Active, N = 235, P 0.0027 vs placebo", "value": 212},
      {"measurement": "% of subjects with no worsening by PGA (<0.3 point increase from baseline)", "setting": "subjects with SLE; ANA+ subjects, week 52, All Active, N = 235, P 0.0027 vs placebo (76.7%)", "value": "(90.2%)"},
      {"measurement": "subjects with reduction in SELENA SLEDAI ≧4, number", "setting": "subjects with SLE; ANA+ subjects, week 52, All Active, N = 235, P 0.1169 vs placebo", "value": 116},
      {"measurement": "increases in BILAG organ domain score: musculoskeletal", "setting": "subjects with SLE; ANA+ subjects, week 52, p<0.008", "value": "fewer increases in score"},
      {"measurement": "increases in BILAG organ domain score: neurological", "setting": "subjects with SLE; ANA+ subjects, week 52, p<0.038", "value": "fewer increases in score"},
      {"measurement": "increases in BILAG organ domain score: general", "setting": "subjects with SLE; ANA+ subjects, week 52, p<0.15", "value": "trend toward fewer increases in score"},
      {"measurement": "increases in BILAG organ domain score: renal", "setting": "subjects with SLE; ANA+ subjects, week 52, p<0.15", "value": "trend toward fewer increases in score"},
      {"measurement": "reduction in SELENA SLEDAI (SS) score", "setting": "subjects with SLE; ANA+ subjects, week 52, p=0.0435", "value": 29, "unit": "%"},
      {"measurement": "increases in BILAG organ domain score: cardiovascular & respiratory", "setting": "subjects with SLE; ANA+ subjects, week 52, p=0.060", "value": "trend toward fewer increases in score"},
      {"measurement": "subjects with increases of prednisone to >[…]", "setting": "subjects with SLE; belimumab-treated, placebo ~15%", "value": "~7", "unit": "%"},
      {"measurement": "PGA score", "setting": "subjects with SLE; by week 16 (p=0.016) through week 52 (p<0.002), all active vs. placebo", "value": "improved"},
      {"measurement": "dosage of prednisone necessary to ameliorate disease manifestations", "setting": "subjects with SLE; lupus patients, IV days 0, 14, 28 then every four weeks until week 52", "value": "effective in reducing the dosage of the corticosteroid prednisone"},
      {"measurement": "symptoms associated with lupus", "setting": "subjects with SLE; patients with ANA titer 1:80 or greater and/or ≧30 IU/mL anti-dsDNA, IV days 0, 14, 28 then every four weeks until week 52", "value": "significantly ameliorated symptoms associated with lupus"},
      {"measurement": "combined response rate", "setting": "subjects with SLE; seropositive subjects (n=175) who completed 128 weeks", "value": 63, "unit": "%"},
      {"measurement": "combined response rate", "setting": "subjects with SLE; seropositive subjects (n=321), all belimumab treatment groups combined, week 56, placebo 35%, p<0.05", "value": 49, "unit": "%"},
      {"measurement": "SLE flare rate (SFI), percent of subjects with at least one flare", "setting": "subjects with SLE; seropositive subjects, fifth six-month interval", "value": 33, "unit": "%"},
      {"measurement": "SLE flare rate (SFI), percent of subjects with at least one flare", "setting": "subjects with SLE; seropositive subjects, first six-month interval, placebo 76%", "value": 72, "unit": "%"},
      {"measurement": "SLE flare rate (SFI), percent of subjects with at least one flare", "setting": "subjects with SLE; seropositive subjects, fourth six-month interval", "value": 30, "unit": "%"},
      {"measurement": "SLE flare rate (SFI), percent of subjects with at least one flare", "setting": "subjects with SLE; seropositive subjects, second six-month interval, placebo 73%", "value": 61, "unit": "%"},
      {"measurement": "SLE flare rate (SFI), percent of subjects with at least one flare", "setting": "subjects with SLE; seropositive subjects, third six-month interval", "value": 57, "unit": "%"},
      {"measurement": "combined response rate", "setting": "subjects with SLE; seropositive subjects, weeks 76-128 of continuous therapy (ITT analysis)", "value": 55, "unit": "%"},
      {"measurement": "combined response rate", "setting": "subjects with SLE; subjects with baseline Anti-dsDNA autoantibodies, week 52", "value": 47, "unit": "%"},
      {"measurement": "combined response rate", "setting": "subjects with SLE; subjects with baseline Anti-dsDNA autoantibodies, week 128", "value": 53, "unit": "%"},
      {"measurement": "combined response rate", "setting": "subjects with SLE; subjects with baseline RNP autoantibodies, week 52", "value": 42, "unit": "%"},
      {"measurement": "combined response rate", "setting": "subjects with SLE; subjects with baseline RNP autoantibodies, week 128", "value": 52, "unit": "%"},
      {"measurement": "combined response rate", "setting": "subjects with SLE; subjects with baseline Ro autoantibodies, week 52", "value": 41, "unit": "%"},
      {"measurement": "combined response rate", "setting": "subjects with SLE; subjects with baseline Ro autoantibodies, week 128", "value": 51, "unit": "%"},
      {"measurement": "combined response rate", "setting": "subjects with SLE; subjects with baseline aCl autoantibodies, week 52", "value": 51, "unit": "%"},
      {"measurement": "combined response rate", "setting": "subjects with SLE; subjects with baseline aCl autoantibodies, week 128", "value": 51, "unit": "%"},
      {"measurement": "composite numerical BILAG scores", "setting": "subjects with SLE; vs. placebo", "value": "no significant differences"},
      {"measurement": "percent of seropositive subjects with new 1A or 2B BILAG flares", "setting": "subjects with SLE; week 52, placebo 19%, p=0.0152", "value": 9, "unit": "%"},
      {"measurement": "seropositive subjects with worsening PGA scores", "setting": "subjects with SLE; week 52, placebo 23%, p=0.0027", "value": 10, "unit": "%"},
      {"measurement": "percent of seropositive subjects with SS>4 point improvement", "setting": "subjects with SLE; weeks 76-128", "value": "58-60%"},
      {"measurement": "percent of seropositive subjects with new 1A or 2B BILAG flares", "setting": "subjects with SLE; weeks 96-128", "value": "6-7%"},
      {"measurement": "seropositive subjects with worsening PGA scores", "setting": "subjects with SLE; weeks 96-128", "value": "7-9%"}
    ]}
  ]
}
